Experimental data from patent US10640463B2, “Chlorhexidine crystal forms and uses thereof in medicine” (Queen Mary University of London, priority 2016, dated 2020).
“And” between values parts separate entries of the source, which are not always exact repeats. Equal values may be shown once.

Legend:
[1] = Chlorhexidine release from electrospun PLA fibres at different temperatures; type: physicochemical; conditions: 5% in electrospun PLA fibres, deionized water, after 120 h
Description: Electrospinning was utilized to fabricate spherical chlorhexidine chloride compound doped polylactic acid (PLA) fibres. Polylactic acid (Nature works, 2002D) was dissolved in a mixed solvent of chloroform and acetone (3:1 by volume) at 7 wt %. Spherical chlorhexidine chloride compounds were added at 5% weight to the PLA and mixed using a Rotomix. Electrospinning was carried out at room temperature (25° C.), with a pumping rate set at 1 ml/h, working distance at 15 cm, and voltage at 18 kv. Electrospun PLA fibres were collected on a foil. For the chlorhexidine release test, the fibres were weighed (Salter ANDER-180A weighing scale, UK) and divided into cuvettes, and each sample was 25 mg (n=5). Deionized water was added to each cuvette and fibres were kept immersed. Three groups of chlorhexidine chloride compound doped fibres were tested at different temperatures (25, 37 and 60° C.). At each time point (1, 3, 5, 10, 20, 30, 45, 72, 96, 120 h), the solutions were collected for the UV absorption test (Lambda 35, Perkin Elmer, USA) and replaced with fresh deionized water as in Example 6.

[2] = Chlorhexidine release from PMMA resin; type: physicochemical; conditions: 5% loading, after 650 hours
Description: For the release study, all sample resin discs (HEMA-UDMA) containing chlorhexidine chloride compounds or chlorhexidine diacetate powder prepared in Example 5 were kept in cuvettes containing 3 ml deionized water, and kept at room temperature. And at each time point, solutions were collected for UV absorption tests (Lambda 35, Perkin Elmer, USA) and replaced with fresh deionized water.
The PMMA resin system was also tested for the release kinetics of spherical chlorhexidine chloride compounds. Specifically, PMMA resin was prepared by mixing the Simplex Rapid Liquid and powder (Kemdent, Lot: 920 758) at a weight ratio of 1:2. The self-cure process took about 15 min, and after which the mixture was filled into a Teflon mould in the same way and pressed (Mestra, Mod.030350). To incorporate the spherical chlorhexidine chloride compounds, they were previously mixed with the Simplex Rapid powder (5% weight of mixture), and the liquid was added.

[3] = test system: Fusobacterium nucleatum sub species polymorphum (strain-NCTC10562); assay: MIC and MBC of chlorhexidine spheres; type: cell-based; parameters: key to MIC/MBC class at this concentration: The MIC was defined as the lowest concentration of chlorhexidine spheres that inhibited the growth of microorganism at each time point; The MBC was the lowest concentration of chlorhexidine spheres giving no observable bacterial growth; conditions: for MBC: F. nucleatum sub sp. polymorphum; for MIC: planktonic F. nucleatum sub sp. polymorphum
Description: (§1) The effectiveness of the chlorhexidine spheres against a panel of periodontal pathogens was evaluated by measurements of the growth (optical density) of bacterial cultures. Porphyromonas gingivalis (strain-W50), Fusobacterium nucleatum sub species polymorphum (strain-NCTC10562) and Aggregatibacter actinomycetemcomitans (strain-Y4) were grown on blood agar plates and in brain heart infusion (BHI) broth in an anaerobic environment with an atmosphere of 5% H2, 10% CO2, and 85% N2 at 37° C. for 2 days. BHI broth was pre-reduced with 5 μg/ml hemin and 5 μg/ml menadione bisulphite added. Bacterial numbers in the BHI cultures were determined and standardised by serial dilution and enumeration of colony forming units (CFUs) on agar plates. After overnight incubation, the bacterial suspensions were diluted 1:20 with fresh BHI medium to achieve an optical density of 0.1 for P. gingivalis and A. actinomycetemcomitans and 0.2 for F. nucleatum sub sp. polymorphum at 595 nm (OD595) to give approximately 6.5×10^7 colony-forming units (CFU) per ml.
(§2) Negative control (bacterial inoculum only but no chlorhexidine spheres) and blank (medium only) wells were also included. The microtiter plates were incubated for 0, 24 and 48 hours in anaerobic conditions as above and the optical density (OD) was determined at 595 nm to quantify bacterial growth. The MIC was defined as the lowest concentration of chlorhexidine spheres that inhibited the growth of microorganism at each time point. The MBC was the lowest concentration of chlorhexidine spheres giving no observable bacterial growth. MBC was determined following transfer of the microtiter well contents to micro centrifuge tubes, centrifuging to pellet the bacterial cells, washing to remove any remaining chlorhexidine spheres and incubation on blood agar plates. After incubation anaerobically growth of bacteria that had survived the treatment was recorded.

[4] = test system: Aggregatibacter actinomycetemcomitans (strain-Y4); assay: MIC and MBC of chlorhexidine spheres; type: cell-based; parameters: key to MIC/MBC class at this concentration: The MIC was defined as the lowest concentration of chlorhexidine spheres that inhibited the growth of microorganism at each time point; The MBC was the lowest concentration of chlorhexidine spheres giving no observable bacterial growth; conditions: for MIC: planktonic A. actinomycetemcomitans
Description: as §1, §2

[5] = test system: Porphyromonas gingivalis (strain-W50); assay: MIC and MBC of chlorhexidine spheres; type: cell-based; parameters: key to MIC/MBC class at this concentration: The MIC was defined as the lowest concentration of chlorhexidine spheres that inhibited the growth of microorganism at each time point; The MBC was the lowest concentration of chlorhexidine spheres giving no observable bacterial growth
Description: as §1, §2

[6] = 0.0005% chlorhexidine spheres, 24 hours
[7] = 0.0005% chlorhexidine spheres, 48 hours
[8] = 0.001% chlorhexidine spheres, 24 hours
[9] = 0.001% chlorhexidine spheres, 48 hours
[10] = 0.002% chlorhexidine spheres, 24 hours
[11] = 0.002% chlorhexidine spheres, 48 hours
[12] = 0.00025% chlorhexidine spheres, 24 hours
[13] = 0.00025% chlorhexidine spheres, 48 hours
[14] = planktonic P. gingivalis, 48 hours

chlorhexidine dissolved ([1]; 25° C.): 65.8% | chlorhexidine dissolved ([1]; 37° C.): 79.7% | chlorhexidine dissolved ([1]; 60° C.): 89.6% | chlorhexidine released [2]: 8% | MIC/MBC class at this concentration [3, 6]: No Inhibition | MIC/MBC class at this concentration [3, 7]: No Inhibition | MIC/MBC class at this concentration [3, 8]: MBC | MIC/MBC class at this concentration [3, 9]: MBC | MIC/MBC class at this concentration [3, 10]: MBC | MIC/MBC class at this concentration [3, 11]: MBC | MIC/MBC class at this concentration ([3]; 0.004% chlorhexidine spheres, 24 hours): MBC | MIC/MBC class at this concentration ([3]; 0.004% chlorhexidine spheres, 48 hours): MBC | threshold for inhibition (MIC) ([3]; F. nucleatum, time not stated): 0.001% | MIC ([3]; 24 hours): 0.0005% and 0.001% | MIC ([3]; 48 hours): 0.001% | MIC/MBC class at this concentration [4, 12]: MBC | MIC/MBC class at this concentration [4, 13]: MBC | MIC/MBC class at this concentration [4, 6]: MBC | MIC/MBC class at this concentration [4, 7]: MBC | MIC/MBC class at this concentration [4, 8]: MBC | MIC/MBC class at this concentration [4, 9]: MBC | MIC ([4]; 24 hours): 0.00025% | MIC ([4]; 48 hours): 0.00025% | MIC/MBC class at this concentration [5, 12]: MIC | MIC/MBC class at this concentration [5, 13]: MBC | MIC/MBC class at this concentration [5, 6]: MBC | MIC/MBC class at this concentration [5, 7]: MBC | MIC/MBC class at this concentration [5, 8]: MBC | MIC/MBC class at this concentration [5, 9]: MBC | MIC/MBC class at this concentration [5, 10]: MBC | MIC/MBC class at this concentration [5, 11]: MBC | MIC ([5]; planktonic P. gingivalis, 24 hours): 0.00025% | MIC [5, 14]: 0.00025%
Compound: Cl.Cl.N=C(NCCCCCCNC(=N)NC(=N)Nc1ccc(Cl)cc1)NC(=N)Nc1ccc(Cl)cc1 [chlorhexidine spheres]
MBC ([3]; 24 hours): 0.001% | MBC ([3]; 48 hours): 0.001% | concentrations with antimicrobial effect ([4]; A. actinomycetemcomitans): ≥ 0.00025% | MBC ([4]; A. actinomycetemcomitans, 24 and 48 hour cultures): 0.00025% | concentrations with antimicrobial effect ([5]; P. gingivalis): ≥ 0.00025% | MBC ([5]; P. gingivalis, 24 hours): 0.0005% | MBC [5, 14]: 0.00025%
